Laboratory results published in patent US20250367302A1, “SMALL MOLECULE DRUG-OLIGONUCLEOTIDE CONJUGATE AND USE THEREOF” (SHANGHAI JIAO TONG UNIVERSITY, priority 2022, published 2025).
In the oligonucleotide strings, read from the 5' end, every base follows the letter of its sugar. An asterisk marks phosphorothioate; unmarked linkages are phosphodiester. Other units and linkages are bracketed, terminal groups are in braces. A string of capitals states the bases alone. d = 2'-deoxy (DNA); r = 2'-OH (RNA)

Assays:
NFKBIZ mRNA = NFKBIZ mRNA expression by RT-qPCR in LPS-stimulated HCECs; type: cell-based, human; settings: LPS-stimulated (100 ng/mL) HCECs, 10 μM ASO or siRNA, without transfection reagent, 6 h + 48 h
Description: HCECs were inoculated in a 6-well plate at a density of 1×10^5 cells/well and cultured until adherence. The cells were then stimulated with 100 ng/mL lipopolysaccharide (LPS) overnight. After removing the supernatant, 1 mL of Opti-MEM medium containing ASONFKBIZ-h, ASONFKBIZ-h+Lipofectamine2000 (Lipo2000), and CsA-ASONFKBIZ-h (all containing 10 µM ASO) were added, respectively. Cells without any treatment were used as a blank reference (Mock). After incubation at 37° C. for 6 h, the cells were transferred into DMEM medium and incubated for another 48 h. The cells were collected and RNA was extracted for RT-qPCR to analyze the expression level of the NFKBIZ mRNA in HCECs, and experimental results were shown in FIG. 9. The expression level of NFKBIZ mRNA in HCECs after LPS stimulation was about 1.3 times that of normal cells. […] After adding CsA-ASONFKBIZ-h for co-incubation, the expression of NFKBIZ mRNA was reduced to about 0.8 times that of normal cells.
(§1) HCECs were inoculated in a 6-well plate at a density of 1×10^5 cells/well and cultured until adherence. The cells were then stimulated with 100 ng/mL LPS overnight. After removing the supernatant, 1 mL of Opti-MEM medium containing ASONFKBIZ-h+Lipo2000 complex and 2CsA-ASONFKBIZ-h nanomicelles (all containing 10 µM ASO) were added, respectively. After incubation at 37° C. for 6 h, the cells were transferred into DMEM medium and incubated for another 48 h. The cells were collected and RNA was extracted for RT-qPCR to analyze the expression level of the NFKBIZ mRNA in HCECs, and experimental results were shown in FIG. 12.
as §1, with “ng/ml” for “ng/mL”, “3CsA-ASONFKBIZ-h” for “2CsA-ASONFKBIZ-h”, “15.” for “12.”
HCECs were inoculated in a 6-well plate at a density of 1×10^5 cells/well and cultured until adherence. The cells were then stimulated with 100 ng/mL LPS overnight. 1 mL of Opti-MEM medium containing ASONFKBIZ-h+Lipo2000 complex and CsA3-ASONFKBIZ-h nanomicelles (all containing 10 µM ASO) were added, respectively. After incubation at […]. 37° C. for 6 h, the cells were transferred into DMEM medium and incubated for another 48 h. After collected and RNA was extracted for RT-qPCR to evaluate the expression level of NFKBIZ mRNA in HCECs, and the experimental results were shown in FIG. 23.
HCECs were inoculated in a 6-well plate at a density of 1×10^5 cells/well and cultured overnight until adherence. The cells were then stimulated with 100 ng/ml LPS for 12 h. After removing the supernatant, 1 mL of Opti-MEM medium containing siRNANFKBIZ-h+Lipo2000 complex and nCsA-siRNANFKBIZ-h (n=1, 2, 3) conjugates and nanomicelles (all containing 10 μM siRNA) were added, respectively. After incubation at 37° C. for 6 h, the cells were transferred into DMEM medium and incubated for another 48 h. The cells were collected and RNA was extracted for RT-qPCR to evaluate the expression of NFKBIZ mRNA in HCECs, and experimental results were shown in FIG. 27. […]

[1] = system: mice with xerophthalmia (0.2% benzalkonium chloride); test: Benzalkonium chloride xerophthalmia mouse model: sodium fluorescein staining and phenol red cotton thread tear test; type: in vivo, mouse (C57BL/6); settings: for phenol red cotton thread infiltration length (tear secretion) after 14 d of treatment / sodium fluorescein staining eye score after 14 d of treatment: eye drops 5 μL per eye twice daily, 400 μM CsA (10RAP: 400 μM rapamycin), day 14; for phenol red cotton thread infiltration length (tear secretion), day 0 (before treatment) / sodium fluorescein staining eye score, day 0 (before treatment): xerophthalmia mice, baseline of the treatment group
Description: The ocular xerophthalmia model was established in 6-8 weeks old mice (C57BL/6, Suzhou Xishan Biotechnology Co., Ltd.) with 0.2% benzalkonium chloride. 5 μL of 0.2% benzalkonium chloride was dripped into each eye of the mice, once in the morning and once in the evening every day, for two consecutive weeks. After successful modeling, the hospital-prepared CsA eye drops (400 µM CsA, referred to as hospital-prepared CsA eye drops or CsA eye drops, provided by the Eye, Ear, Nose and Throat Hospital Affiliated to Fudan University School of Medicine, Shanghai) and CsA-ASONFKBIZ-m (400 µM CsA) were used for eye drops treatment, 5 μL per eye, once in the morning and once in the evening. Sodium fluorescein staining and phenol red cotton thread tear secretion test were conducted on days 0, 7, and 14 of treatment to evaluate the therapeutic effect.
(§2) The ocular xerophthalmia model was established in 6-8 weeks old mice (C57BL/6, Suzhou Xishan Biotechnology Co., Ltd.) with 0.2% benzalkonium chloride. 5 μL of 0.2% benzalkonium chloride was dripped into each eye of the mice, once in the morning and once in the evening every day, for two consecutive weeks. After successful modeling, the hospital-prepared CsA eye drops (400 μM CsA, provided by the Eye, Ear, Nose and Throat Hospital Affiliated to Fudan University School of Medicine, Shanghai) and 2CsA-ASONFKBIZ-m (400 µM CsA) were used for eye drops treatment, 5 μL per eye, once in the morning and once in the evening. Sodium fluorescein staining and phenol red cotton thread tear secretion test were conducted on days 0, 7, and 14 of treatment to evaluate the therapeutic effect.
as §2, with “µM” for “μM”, “provided” for “provided by”, “3CsA-ASONFKBIZ-m nanomicelles (133 µM ASO concentration, 400” for “2CsA-ASONFKBIZ-m (400”
as §2, with “CsA3-ASONFKBIZ-m nanomicelles” for “2CsA-ASONFKBIZ-m”, “0” for “0, 7,”
The ocular xerophthalmia model was established in 6-8 weeks old mice (C57BL/6, Suzhou Xishan Biotechnology Co., Ltd.) using 0.2% benzalkonium chloride. 5 μL of 0.2% benzalkonium chloride was dripped into each eye of the mouse, once in the morning and once in the evening every day for two weeks. After successful modeling, the hospital-prepared CsA eye drops (400 µM CsA, provided by the Eye, Ear, Nose and Throat Hospital Affiliated to Fudan University School of Medicine, Shanghai) and CsA-siRNANFKBIZ-m (400 µM CsA), 2CsA-siRNANFKBIZ-m nanomicelles (400 µM CsA), 3CsA-siRNANFKBIZ-m nanomicelles (400 µM CsA) were used for eye drops treatment, 5 μL per eye, once in the morning and once in the evening. […]

Substance	expression of NFKBIZ mRNA relative to normal cells (NFKBIZ mRNA)	phenol red cotton thread infiltration length (tear secretion) after 14 d of treatment [1]	sodium fluorescein staining eye score after 14 d of treatment [1]	phenol red cotton thread infiltration length (tear secretion), day 0 (before treatment) [1]	sodium fluorescein staining eye score, day 0 (before treatment) [1]
2CsA-ASONFKBIZ-h: two CsA molecules coupled to 2DBCO ASO targeting human NFKBIZ (SEQ ID 3), self-assembled (ATCAGACAACGAATCGGGCNTT; two CsA via DBCO click; modified_base 20 OTHER; n is t base modified with DBCO moiety)	about 0.8 times that of normal cells	–	–	–	–
2CsA-ASONFKBIZ-m: two CsA molecules coupled to 2DBCO ASO targeting mouse NFKBIZ (SEQ ID 4), self-assembled (AATACTGGTACATTGACGCCNTT; two CsA via DBCO click; modified_base 21 OTHER; n is t base modified with DBCO moiety)	–	about 3.5 mm	about 3.5 points	1.5 mm	6 points
2CsA-siRNANFKBIZ-m: two CsA coupled to sense strand of siRNA targeting mouse NFKBIZ (SEQ ID NO: 17/18) (sense GCGUCAAUGUACCAGUAUUUUNUU; antisense AAUACUGGUACAUUGACGCCU; two CsA on sense strand; modified_base 22 OTHER; n is t base modified with DBCO moiety)	–	about 2.5 mm	about 2 points	1.5 mm	6 points
3CsA-ASONFKBIZ-m: three CsA molecules coupled to 3DBCO ASO targeting mouse NFKBIZ (SEQ ID 6), self-assembled (AATACTGGTACATTGACGCCNTNTT; three CsA via DBCO click; modified_base 21 OTHER; n is t base modified with DBCO moiety; modified_base 23 OTHER)	–	about 4 mm	about 4 points	1.3 mm	10 points
3CsA-siRNANFKBIZ-m: three CsA coupled to sense strand of siRNA targeting mouse NFKBIZ (SEQ ID NO: 19/20) (sense GCGUCAAUGUACCAGUAUUUUNUNUU; antisense AAUACUGGUACAUUGACGCCU; three CsA on sense strand; modified_base 22 OTHER; n is t base modified with DBCO moiety; modified_base 24 OTHER)	–	about 2.5 mm	about 2 points	1.5 mm	6 points
CsA-ASONFKBIZ-m: single cyclosporin A (CsA-N3) click-coupled to 3′-DBCO ASO targeting mouse NFKBIZ gene (SEQ ID NO: 2) (AATACTGGTACATTGACGCC; 3'-DBCO ASO click-conjugated to one cyclosporin A, sugar and linkages not given here, further chemistry not given here)	–	about 3.2 mm	about 3 points	1.8 mm	5.5 points
CsA-siRNANFKBIZ-m: one CsA coupled to sense strand of siRNA targeting mouse NFKBIZ (SEQ ID NO: 15/16) (sense rGrCrGrUrCrArArUrGrUrArCrCrArGrUrArUrUdTdT; antisense rArArUrArCrUrGrGrUrArCrArUrUrGrArCrGrCdCdT; cyclosporin A clicked onto the sense 3' DBCO group, further chemistry not fully specified)	–	about 2.5 mm	about 3 points	2 mm	6 points
